Assay results reported in patent US10676485B2, “Macrocyclic MCL-1 inhibitors and methods of use” (AbbVie Inc., priority 2017, dated 2020).
Read-outs that look alike come from different tables or passages of the source.

Key:
[1] = tested on: NCI-H929 human multiple myeloma tumor cell line; assay: NCI-H929 cell viability assay (CellTiter-Glo); assay type: cell-based; details: NCI-H929, read-out: H929 Viability IC50 (μM), 10% FBS, 24 hours of compound treatment
[2] = tested on: AMO-1 human multiple myeloma tumor cell line; assay: AMO-1 cell viability assay (CellTiter-Glo); assay type: cell-based; details: AMO1, read-out: AMO-1 Viability IC50 (μM), 10% FBS, 24 hours of compound treatment
Protocol: In one exemplary set of conditions, NCI-H929 or AMO-1 (ATCC. Manassas, Va.) were plated 4.000 cells per well in 384-well tissue culture plates (Corning. Corning, N.Y.) in a total volume of 25 μL RPMI tissue culture medium supplemented with 10% fetal bovine serum (Sigma-Aldrich, St. Louis, Mo.) and treated with a 3-fold serial dilution of the compounds of interest with a Labcyte Echo from a final concentration of 10 μM to 0.0005 μM. Each concentration was tested in duplicate at least 3 independent times. A luminescent signal proportional to the number of viable cells following 24 hours of compound treatment was determined using the CellTiter-Glo® Luminescent Cell Viability Assay according to the manufacturer's recommendations (Promega Corp., Madison, Wis.). The plates were read in a Perkin Elmer Envision using a Luminescence protocol. To generate dose response curves the data is normalized to percent viability by setting the averages of the staurosporine (10 uM) and DMSO only control wells to 0% and (00)% viability respectively. The IC50 values for the compounds are generated by fitting the normalized data with Accelrys Assay Explorer 3.3 to a sigmoidal curve model using linear regression.

GST-MCL-1 = GST-MCL-1 (Homo sapiens (Human), UniProt Q07820); assay: TR-FRET MCL-1 binding assay (competition with probe F-Bak)
GST-MCL-1, sequence (Q07820 whole entry): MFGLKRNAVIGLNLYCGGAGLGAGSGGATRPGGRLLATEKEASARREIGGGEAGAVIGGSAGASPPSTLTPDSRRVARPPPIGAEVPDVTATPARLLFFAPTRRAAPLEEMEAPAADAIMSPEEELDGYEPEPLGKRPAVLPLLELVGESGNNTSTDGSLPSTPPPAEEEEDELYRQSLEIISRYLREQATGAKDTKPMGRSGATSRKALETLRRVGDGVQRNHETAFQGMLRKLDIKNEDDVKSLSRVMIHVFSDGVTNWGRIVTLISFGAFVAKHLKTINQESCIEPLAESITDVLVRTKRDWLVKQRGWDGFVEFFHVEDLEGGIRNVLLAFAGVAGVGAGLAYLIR
Protocol: For the assay, an acoustic dispenser was used to prepare dilution series from 10 mM test compounds in 100% DMSO and directly transfer 160 nL into low volume 384-well assay plates. 8 μL of a protein/probe/antibody mix was then added to each well resulting in final concentrations listed below: Test compound: 11 three-fold dilutions beginning at 25 μM
The samples were then mixed on a shaker for 1 minute and incubated for an additional 2 hours at room temperature. For each assay plate, a probe/antibody and protein/antibody/probe mixture were included as a negative and a positive control, respectively. Fluorescence was measured on the Envision (Perkin Elmer) using a 340/35 nm excitation filter and 520/525 (F-Bak) and 495/510 nm (Tb-labeled anti-his antibody) emission filters. […] The TR-FRET assay can be performed in the presence of varying concentrations of human serum (HS) or fetal bovine serum (FBS). Compounds were tested both without HS and in the presence of 10% HS.

[3] = read-out: MCL-1 Binding Ki (nM, 10% HS), in the presence of 10% HS
[4] = without HS, read-out: MCL-1 Binding Ki

Cc1c(Cl)c2c(Cl)c(C)c1-c1c(-c3ccc(F)cc3)sc3ncnc(c13)O[C@@H](C(=O)O)Cc1cc(ccc1OCc1ccnc([C@H]3CC[C@@H](COC[C@H]4COCCO4)CC3)n1)OC[C@@H](CN1CCN(C)CC1)O2 [Example 50, (7R,16R)-19,23-dichloro-10-({2-[(1S,4s)-4-({[(2S)-1,4-dioxan-2-yl]methoxy}methyl)cyclohexyl]pyrimidin-4-yl}methoxy)-1-(4-fluorophenyl)-20,22-dimethyl-16-[(4-methylpiperazin-1-yl)methyl]-7,8,15,16-tetrahydro-18,21-etheno-13,9-(metheno)-6,14,17-trioxa-2-thia-3,5-diazacyclononadeca[1,2,3-cd]indene-7-carboxylic acid]
IC50 [1]: 0.000255 µM | IC50 [2]: 0.000249 µM | Ki (GST-MCL-1; [3]): 0.249 nM | Ki (GST-MCL-1; [4]): 0.022 nM

Cc1c(Cl)c2c(Cl)c(C)c1-c1c(-c3ccc(F)cc3)sc3ncnc(c13)O[C@@H](C(=O)O)Cc1cc(ccc1OCc1ccnc(N3CC(COC[C@@H]4COCCO4)C3)n1)OC[C@@H](CN1CCN(C)CC1)O2 [Example 13, (7R,16R)-19,23-dichloro-10-({2-[3-({[(2R)-1,4-dioxan-2-yl]methoxy}methyl)azetidin-1-yl]pyrimidin-4-yl}methoxy)-1-(4-fluorophenyl)-20,22-dimethyl-16-[(4-methylpiperazin-1-yl)methyl]-7,8,15,16-tetrahydro-18,21-etheno-9,13-(metheno)-6,14,17-trioxa-2-thia-3,5-diazacyclononadeca[1,2,3-cd]indene-7-carboxylic acid]
IC50 [1]: 0.00311 µM | IC50 [2]: 0.00126 µM | Ki (GST-MCL-1; [3]): 1.07 nM | Ki (GST-MCL-1; [4]): 0.079 nM

COc1ccccc1-c1ccc(OC[C@@H]2COCCO2)c(COc2ccc3cc2C[C@H](C(=O)O)Oc2ncnc4sc(-c5ccc(F)cc5)c(c24)-c2c(C)c(Cl)c(c(Cl)c2C)O[C@H](CN2CCN(C)CC2)CO3)n1 [Example 53, (7R,16R)-19,23-dichloro-10-{[3-{[(2S)-1,4-dioxan-2-yl]methoxy}-6-(2-methoxyphenyl)pyridin-2-yl]methoxy}-1-(4-fluorophenyl)-20,22-dimethyl-16-[(4-methylpiperazin-1-yl)methyl]-7,8,15,16-tetrahydro-18,21-etheno-9,13-(metheno)-6,14,17-trioxa-2-thia-3,5-diazacyclononadeca[1,2,3-cd]indene-7-carboxylic acid]
IC50 [1]: > 1 µM | IC50 [2]: 0.311 µM | Ki (GST-MCL-1; [3]): 114 nM | Ki (GST-MCL-1; [4]): 13.7 nM

Cc1c(Cl)c2c(Cl)c(C)c1-c1c(-c3ccc(F)cc3)sc3ncnc(c13)O[C@@H](C(=O)O)Cc1cc(ccc1OCc1ccnc(C3(COC[C@H]4COCCO4)CCC3)n1)OC[C@@H](CN1CCN(C)CC1)O2 [Example 11, (7R,16R)-19,23-dichloro-10-({2-[1-({[(2S)-1,4-dioxan-2-yl]methoxy}methyl)cyclobutyl]pyrimidin-4-yl}methoxy)-1-(4-fluorophenyl)-20,22-dimethyl-16-[(4-methylpiperazin-1-yl)methyl]-7,8,15,16-tetrahydro-18,21-etheno-13,9-(metheno)-6,14,17-trioxa-2-thia-3,5-diazacyclononadeca[1,2,3-cd]indene-7-carboxylic acid]
IC50 [1]: 0.000545 µM | IC50 [2]: 0.000188 µM

Cc1c(Cl)c2c(Cl)c(C)c1-c1c(-c3ccc(F)cc3)sc3ncnc(c13)O[C@@H](C(=O)O)Cc1cc(ccc1OCc1ccnc([C@H]3CC[C@@](F)(COC[C@H]4COCCO4)CC3)n1)OC[C@@H](CN1CCN(C)CC1)O2 [Example 47, (7R,16R)-19,23-dichloro-10-({2-[(1R,4r)-4-({[(2R)-1,4-dioxan-2-yl]methoxy}methyl)-4-fluorocyclohexyl]pyrimidin-4-yl}methoxy)-1-(4-fluorophenyl)-20,22-dimethyl-16-[(4-methylpiperazin-1-yl)methyl]-7,8,15,16-tetrahydro-18,21-etheno-13,9-(metheno)-6,14,17-trioxa-2-thia-3,5-diazacyclononadeca[1,2,3-cd]indene-7-carboxylic acid]
IC50 [1]: 0.000344 µM | IC50 [2]: 0.000463 µM | Ki (GST-MCL-1; [3]): 0.521 nM | Ki (GST-MCL-1; [4]): 0.0133 nM

Cc1c(Cl)c2c(Cl)c(C)c1-c1c(-c3ccc(F)cc3)sc3ncnc(c13)O[C@@H](C(=O)O)Cc1cc(ccc1OCc1ccnc([C@H]3CC[C@H](OC[C@H]4COCCO4)CC3)n1)OC[C@@H](CN1CCN(C)CC1)O2 [Example 9, (7R,16R)-19,23-dichloro-10-({2-[(1R,4r)-4-{[(2R)-1,4-dioxan-2-yl]methoxy}cyclohexyl]pyrimidin-4-yl}methoxy)-1-(4-fluorophenyl)-20,22-dimethyl-16-[(4-methylpiperazin-1-yl)methyl]-7,8,15,16-tetrahydro-18,21-etheno-13,9-(metheno)-6,14,17-trioxa-2-thia-3,5-diazacyclononadeca[1,2,3-cd]indene-7-carboxylic acid]
IC50 [1]: 0.000245 µM | IC50 [2]: 0.000165 µM | Ki (GST-MCL-1; [3]): 0.1 nM | Ki (GST-MCL-1; [4]): 0.005 nM

Cc1c(Cl)c2c(Cl)c(C)c1-c1c(-c3ccc(F)cc3)sc3ncnc(c13)O[C@@H](C(=O)O)Cc1cc(ccc1OCc1ccnc(-c3ccc(OC[C@H]4COCCO4)nc3)n1)OC[C@@H](CN1CCN(C)CC1)O2 [Example 5, (7R,16R)-19,23-dichloro-10-{[2-(6-{[(2R)-1,4-dioxan-2-yl]methoxy}pyridin-3-yl)pyrimidin-4-yl]methoxy}-1-(4-fluorophenyl)-20,22-dimethyl-16-[(4-methylpiperazin-1-yl)methyl]-7,8,15,16-tetrahydro-18,21-etheno-13,9-(metheno)-6,14,17-trioxa-2-thia-3,5-diazacyclononadeca[1,2,3-cd]indene-7-carboxylic acid]
IC50 [1]: 0.00037 µM | IC50 [2]: 0.000178 µM | Ki (GST-MCL-1; [3]): 0.71 nM | Ki (GST-MCL-1; [4]): 0.048 nM

COc1ccccc1-c1nccc(COc2ccc3cc2C[C@H](C(=O)O)Oc2ncnc4sc(C[C@@H]5COCCO5)c(c24)-c2c(C)c(Cl)c(c(Cl)c2C)O[C@H](CN2CCN(C)CC2)CO3)n1 [Example 18, (7R,16R)-19,23-dichloro-1-{[(2R)-1,4-dioxan-2-yl]methyl}-10-{[2-(2-methoxyphenyl)pyrimidin-4-yl]methoxy}-20,22-dimethyl-16-[(4-methylpiperazin-1-yl)methyl]-7,8,15,16-tetrahydro-18,21-etheno-13,9-(metheno)-6,14,17-trioxa-2-thia-3,5-diazacyclononadeca[1,2,3-cd]indene-7-carboxylic acid]
IC50 [1]: 0.00995 µM | IC50 [2]: 0.00612 µM | Ki (GST-MCL-1; [3]): 0.24 nM | Ki (GST-MCL-1; [4]): 0.111 nM

Cc1c(Cl)c2c(Cl)c(C)c1-c1c(-c3ccc(F)cc3)sc3ncnc(c13)O[C@@H](C(=O)O)Cc1cc(ccc1OCc1ccnc(N3CCN(S(=O)(=O)CC4COCCO4)CC3)n1)OC[C@@H](CN1CCN(C)CC1)O2 (stereo partly drawn) [Example 26, (7R,16R)-19,23-dichloro-10-[(2-{4-[(1,4-dioxan-2-yl)methanesulfonyl]piperazin-1-yl}pyrimidin-4-yl)methoxy]-1-(4-fluorophenyl)-20,22-dimethyl-16-[(4-methylpiperazin-1-yl)methyl]-7,8,15,16-tetrahydro-18,21-etheno-13,9-(metheno)-6,14,17-trioxa-2-thia-3,5-diazacyclononadeca[1,2,3-cd]indene-7-carboxylic acid]
IC50 [1]: 0.000241 µM | IC50 [2]: 0.0002 µM | Ki (GST-MCL-1; [3]): 1 nM | Ki (GST-MCL-1; [4]): 0.104 nM

Cc1c(Cl)c2c(Cl)c(C)c1-c1c(-c3ccc(F)cc3)sc3ncnc(c13)O[C@@H](C(=O)O)Cc1cc(ccc1OCc1ccnc([C@H]3CC[C@H](OC[C@@H]4COCCO4)CC3)n1)OC[C@@H](CN1CCN(C)CC1)O2 [Example 44, (7R,16R)-19,23-dichloro-10-({2-[(1S,4r)-4-{[(2S)-1,4-dioxan-2-yl]methoxy}cyclohexyl]pyrimidin-4-yl}methoxy)-1-(4-fluorophenyl)-20,22-dimethyl-16-[(4-methylpiperazin-1-yl)methyl]-7,8,15,16-tetrahydro-18,21-etheno-13,9-(metheno)-6,14,17-trioxa-2-thia-3,5-diazacyclononadeca[1,2,3-cd]indene-7-carboxylic acid]
IC50 [1]: 0.000286 µM | IC50 [2]: 0.000268 µM | Ki (GST-MCL-1; [3]): 0.16 nM | Ki (GST-MCL-1; [4]): 0.02 nM

Cc1c(Cl)c2c(Cl)c(C)c1-c1c(C3=CCCC3)sc3ncnc(c13)O[C@@H](C(=O)O)Cc1cc(ccc1OCc1ccnc([C@H]3CC[C@](F)(COC[C@@H]4COCCO4)CC3)n1)OC[C@@H](CN1CCN(C)CC1)O2 [Example 33, (7R,16R)-19,23-dichloro-1-(cyclopent-1-en-1-yl)-10-({2-[(1R,4s)-4-({[(2S)-1,4-dioxan-2-yl]methoxy}methyl)-4-fluorocyclohexyl]pyrimidin-4-yl}methoxy)-20,22-dimethyl-16-[(4-methylpiperazin-1-yl)methyl]-7,8,15,16-tetrahydro-18,21-etheno-13,9-(metheno)-6,14,17-trioxa-2-thia-3,5-diazacyclononadeca[1,2,3-cd]indene-7-carboxylic acid]
IC50 [1]: 0.000586 µM | IC50 [2]: 0.000222 µM | Ki (GST-MCL-1; [3]): 0.3 nM | Ki (GST-MCL-1; [4]): 0.023 nM
